Biological target: T1, human oxytocin receptor (Homo sapiens, UniProt P30559)
T1 construct: host or cells: CHO cells (pcDNA3.1 vector)
T1 sequence (P30559 1-389): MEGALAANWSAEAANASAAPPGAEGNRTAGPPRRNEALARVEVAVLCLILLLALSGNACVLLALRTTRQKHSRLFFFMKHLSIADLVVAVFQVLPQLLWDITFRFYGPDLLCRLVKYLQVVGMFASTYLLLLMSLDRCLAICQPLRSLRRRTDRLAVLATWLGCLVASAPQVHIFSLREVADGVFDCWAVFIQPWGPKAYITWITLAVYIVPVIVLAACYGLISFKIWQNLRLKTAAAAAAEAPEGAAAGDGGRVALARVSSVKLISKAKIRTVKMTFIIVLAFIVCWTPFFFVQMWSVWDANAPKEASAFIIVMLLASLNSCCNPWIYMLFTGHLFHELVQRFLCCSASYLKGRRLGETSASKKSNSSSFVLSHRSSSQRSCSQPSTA
Assay: Oxytocin binding in Chinese Hamster Ovary cell membranes expressing human oxytocin receptors
Conditions: 100 nM, CHO cell membranes, [3H]oxytocin, values without parentheses; for inhibition at 0.1 µM: read-out: OT % inhibition @ 100% nM
Procedure: Oxytocin Binding in Chinese Hamster Ovary Cell Membranes Expressing Human Oxytocin Receptors
The trypsin is removed by aspiration and the cells dislodged by tapping. Cell Culture medium (e.g. 30 mL for 1:30 split) is immediately added and mixed well to inactivate trypsin. 1 mL of detached cells is added to new culture flasks containing fresh Cell Culture medium (e.g. into 25 mL per T-150 flask), and mixed gently. The cells are incubated at 37° C. in 5% CO2. The medium is changed at 3 to 4 days interval (or as appropriate). […] All steps are done under sterile conditions. B. Membrane Preparation: The cells are washed twice gently with Hank's Balanced Salt solution (e.g., use 10 mL per T-150 flask). […] The contents are transferred to centrifuge tubes (50 mL size) kept in ice bath. All subsequent steps are done at 4° C. The tubes are centrifuged at 300×g for 15 min (1380 rpm on SORVAL, Model RT6000D, using rotor for 50 mL tubes). The supernatant is discarded and the cells suspended in homogenizing buffer (10 mM Tris-HCl containing 0.25 M sucrose and 1 mM EDTA, pH 7.4) ensuring that the volume of the buffer is about ten times the volume of the cell pellet. The cells are pooled into a centrifuge tube (50 mL) and homogenized with a Polytron at setting 6 for 10 sec. The homogenate is transferred into a Potter-Elvjehm homogenizer and homogenized with 3 strokes. The homogenate is centrifuged at 1500×g for 10 min at 4° C. (3100 rpm using SORVAL, model RT6000D, using rotor for 50 mL tubes). The pellet is discarded. The supernatant is centrifuged at 100,000×g for 60 min. at 4° C. (Beckman L8-80M ultracentrifuge; spin at 37,500 rpm with rotor type 70 Ti for 50 mL tubes; 38,000 rpm with type 80Ti for 15 mL tubes; or 35,800 rpm with rotor type 45Ti). The supernantant is discarded and the pellet suspended in 3 to 4 mL of Tris buffer (50 mM TRIS-HCl, pH 7.4). The protein content is estimated by the Bradford or Lowry method. The volume of the membrane suspension is adjusted with the membrane buffer (50 mM Tris-HCl containing 0.1% BSA and 0.1 mM PMSF) to give 3.0 mg/mL (or as appropriate) of protein. The membranes are aliquoted and stored at −70° C. C. Radioligand Binding Assay: In wells of a 96-well format microtiter plate, is added 90, 110 or 130 μL (to make up a final volume of 200 μL) of assay buffer containing 50 mM of Tris-HCl (pH 7.4), […], 1 mg % aprotinin, 1 mg % leupeptin, 2 mg % 1,10-phenanthroline, 10 mg % trypsin inhibitor, and 0.1 mM PMSF. The inhibitors are added on the day of the experiment. The components are mixed at room temperature, and then kept in ice bath following adjustment of the pH to 7.4. […] For oxytocin and other peptide ligands, 20 μL of 50% DMSO is added and the assay buffer volume is adjusted accordingly. To each well is added 50 μL of frozen membrane suspension thawed immediately prior to use and diluted in assay buffer to the required concentration (equivalent to 25 to 50 μg of protein/well as needed). 20 μL of 8 nM [^3H]oxytocin in the assay buffer, prepared just before use is added and incubated at room temperature for 60 min. shaking the plate on a mechanical shaker for the first 15 min. The incubation is stopped by rapid filtration of the plate contents followed by washing with ice-cold buffer (50 mM Tris-HCl, pH 7.4) using a cell harvester (Tomtek and Printed filtermat-B filter paper). The filter paper is thoroughly dried (7–12 min. in a microwave oven) and impregnated with MeltiLex B/H melt-on scintillation wax sheets and the radioactivity counted in a betaplate scintillation counter.
Binding data is either reported as percent inhibition at a certain concentration or if an IC50 was calculated, as a nanomolar concentration.

Row | inhibition at 0.1 µM | Structure (SMILES) | OT % inhibition @ 100% nM
1 | -6% | Cc1ccccc1-c1ccc(C(=O)N2Cc3ccc(C(=O)N4CCC(N5CCCC5)CC4)n3Cc3ccccc32)cc1 [Example 141, {10-[(2′-Methyl[1,1′-biphenyl]-4-yl)carbonyl]-10,11-dihydro-5H-pyrrolo[2,1-c][1,4]benzodiazepin-3-yl}[4-(1-pyrrolidinyl)-1-piperidinyl]methanone] | 
2 | 24% | Cc1cc(C(=O)N2Cc3ccc(C(=O)NCCCn4ccnc4)n3Cc3ccccc32)ccc1-c1ccccc1C(F)(F)F [Example 135, N-[3-(1H-Imidazol-1-yl)propyl]-10-{[2-methyl-2′-(trifluoromethyl)[1,1′-biphenyl]-4-yl]carbonyl}-10,11-dihydro-5H-pyrrolo[2,1-c][1,4]benzodiazepine-3-carboxamide] | 
3 | 83% | COc1cc(C(=O)N2Cc3ccc(C(=O)N4CCC(N5CCCC5)CC4)n3Cc3ccccc32)ccc1-c1ccccc1C [Example 142, {10-[(2-Methoxy-2′-methyl[1,1′-biphenyl]-4-yl)carbonyl]-10,11-dihydro-5H-pyrrolo[2,1-c][1,4]benzodiazepin-3-yl}[4-(1-pyrrolidinyl)-1-piperidinyl]methanone] | 
4 |  | COc1ccccc1-c1ccc(C(=O)N2Cc3ccc(C(=O)N4CC[C@@H](N(C)C)C4)n3Cc3ccccc32)cc1OC [Example 282, {10-[(2,2′-Dimethoxy[1,1′-biphenyl]-4-yl)carbonyl]-10,11-dihydro-5H-pyrrolo[2,1-c][1,4]benzodiazepin-3-yl][(3R)-3-(dimethylamino)pyrrolidinyl]methanone] | 84%
5 |  | COc1cc(C(=O)N2Cc3ccc(C(=O)N4CCC[C@H]4CN4CCCC4)n3Cc3ccccc32)ccc1-c1ccccc1Cl [Example 33, {[10-(2-Methoxy)-2′-chloro-[1,1′-biphenyl]-4-yl]carbonyl}-[(2S)-[(2-pyrrolidin-1-yl)methyl]pyrrolidin-1-yl]-10,11-dihydro-5H-pyrrolo[2,1-c][1,4]benzodiazepin-3-yl-methanone] | 101%
6 |  | COc1cccc(-c2ccc(C(=O)N3Cc4ccc(C(=O)N5CC[C@@H](N(C)C)C5)n4Cc4ccccc43)cc2OC)c1 [Example 283, {10-[(2,3′-Dimethoxy[1,1′-biphenyl]-4-yl)carbonyl]-10,11-dihydro-5H-pyrrolo[2,1-c][1,4]benzodiazepin-3-yl}[(3R)-3-(dimethylamino)pyrrolidinyl]methanone] | 91%
7 |  | COc1cccc(-c2cc(OC)c(C(=O)N3Cc4ccc(C(=O)N5CC[C@@H](N(C)C)C5)n4Cc4ccccc43)cc2Cl)c1 [Example 275, {10-[(6-Chloro-3,3′-dimethoxy[1,1′-biphenyl]-4-yl)carbonyl]-10,11-dihydro-5H-pyrrolo[2,1-c][1,4]benzodiazepin-3-yl}[(3R)-3-(dimethylamino)pyrrolidinyl]methanone] | 89%
8 | 47% | COc1cccc(-c2ccc(C(=O)N3Cc4ccc(C(=O)NCCN5CCCCC5)n4Cc4ccccc43)cc2C)c1 [Example 151, 10-[(3′-Methoxy-2-methyl[1,1′-biphenyl]-4-yl)carbonyl]-N-[2-(1-piperidinyl)ethyl]-10,11-dihydro-5H-pyrrolo[2,1-c][1,4]benzodiazepine-3-carboxamide] | 
9 | 87% | COc1ccccc1-c1ccc(C(=O)N2Cc3ccc(C(=O)N(C)CCCN(C)C)n3Cc3ccccc32)cc1OC [Example 107, 10-[(2,2′-Dimethoxy[1,1′-biphenyl]-4-yl)carbonyl]-N-[3-(dimethylamino)propyl]-N-methyl-10,11-dihydro-5H-pyrrolo[2,1-c][1,4]benzodiazepine-3-carboxamide] | 
10 | 52% | COc1cc(-c2ccccc2C)c(Cl)cc1C(=O)N1Cc2ccc(C(=O)NCCCn3ccnc3)n2Cc2ccccc21 [Example 129, 10-[(6-Chloro-3-methoxy-2′-methyl[1,1′-biphenyl]-4-yl)carbonyl]-N-[3-(1H-imidazol-1-yl)propyl]-10,11-dihydro-5H-pyrrolo[2,1-c][1,4]benzodiazepine-3-carboxamide] | 
11 | 26% | COc1cc(C(=O)N2Cc3ccc(C(=O)NCCCn4ccnc4)n3Cc3ccccc32)ccc1-c1cccc2ccccc12 [Example 131, N-[3-(1H-Imidazol-1-yl)propyl]-10-[3-methoxy-4-(1-naphthyl)benzoyl]-10,11-dihydro-5H-pyrrolo[2,1-c][1,4]benzodiazepine-3-carboxamide] | 
12 |  | COc1cc(-c2ccccc2C)c(Cl)cc1C(=O)N1Cc2ccc(C(=O)N3CCC[C@H]3CN3CCCC3)n2Cc2ccccc21 [Example 267, {10-[(6-Chloro-3-methoxy-2′-methyl[1,1′-biphenyl]-4-yl)carbonyl]-10,11-dihydro-5H-pyrrolo[2,1-c][1,4]benzodiazepin-3-yl}[(2S)-2-(1-pyrrolidinylmethyl)pyrrolidinyl]methanone] | 93%
13 |  | Cc1cccc(N2CCN(C(=O)c3ccc4n3Cc3ccccc3N(C(=O)c3ccc(-c5ccccc5C(F)(F)F)c(C)c3)C4)CC2C)c1 (centres unmarked) [Example 5, [3-Methyl-4-(3-methyl-phenyl)-piperazin-1-yl]-[10-(2-methyl-2′-trifluoromethyl-[1,1′-biphenyl]-4-yl)carbonyl]-10,11-dihydro-5H-pyrrolo[2,1-c][1,4]benzodiazepin-3-yl-methanone] | 24%
14 | 69% | COc1cccc(-c2cc(OC)c(C(=O)N3Cc4ccc(C(=O)N5CCC(N6CCCC6)CC5)n4Cc4ccccc43)cc2Cl)c1 [Example 143, {10-[(6-Chloro-3,3′-dimethoxy[1,1′-biphenyl]-4-yl)carbonyl]-10,11-dihydro-5H-pyrrolo[2,1-c][1,4]benzodiazepin-3-yl}[4-(1-pyrrolidinyl)-1-piperidinyl]methanone] | 
15 |  | COc1cccc(-c2cc(OC)c(C(=O)N3Cc4ccc(C(=O)N5CCC[C@H]5CN5CCCC5)n4Cc4ccccc43)cc2Cl)c1 [Example 268, {10-[(6-Chloro-3,3′-dimethoxy[1,1′-biphenyl]-4-yl)carbonyl]-10,11-dihydro-5H-pyrrolo[2,1-c][1,4]benzodiazepin-3-yl}[(2S)-2-(1-pyrrolidinylmethyl)pyrrolidinyl]methanone] | 90%
16 | 54% | COc1cc(C(=O)N2Cc3ccc(C(=O)N4CCC(N5CCCCC5)CC4)n3Cc3ccccc32)ccc1-c1cccc2ccccc12 [Example 118, {10-[3-Methoxy-4-(1-naphthyl)-benzoyl]-10,11-dihydro-5H-pyrrolo[2,1-c][1,4]benzodiazepin-3-yl}[4-(1-piperidinyl)-1-piperidinyl]methanone] | 
17 | 77% | Cc1cc(C(=O)N2Cc3ccc(C(=O)N4CCC(N5CCCCC5)CC4)n3Cc3ccccc32)ccc1-c1ccccc1C(F)(F)F [Example 122, {10-[(2-Methyl-2′-(trifluoromethyl) -[1,1′-biphenyl]-4-yl)carbonyl]-10,11-dihydro-5H -pyrrolo[2,1-c][1,4]benzodiazepin-3-yl}[4-(1-piperidinyl)-1-piperidinyl]methanone] | 

— patent US7109193B2, “Tricyclic diazepines tocolytic oxytocin receptor antagonists” (Wyeth, priority 2001, dated 2006)
